Measured values reported in US9901095B2, “Processes for the preparation of pesticidal compounds” (Dow AgroSciences LLC, priority 2013, dated 2018).

Legend:
[1] = system: Green Peach Aphid (Myzus persicae) (MYZUPE); experiment: Bioassay on Green Peach Aphid (GPA), foliar spray on cabbage seedlings; format: in vivo; conditions: 200 ppm spray on cabbage seedlings; live aphids counted after three days; Abbott's correction
Procedure: Several molecules disclosed herein were tested against GPA using procedures described below.
Cabbage seedling grown in 3-in pots, with 2-3 small (3-5 cm) true leaves, were used as test substrate. The seedlings were infested with […] (wingless adult and nymph stages) one day prior to chemical application. Four pots with individual seedlings were used for each treatment. Test compounds (2 mg) were dissolved in 2 mL of acetone/methanol (1:1) solvent, forming stock solutions of 1000 ppm test compound. The stock solutions were diluted 5× with 0.025% Tween 20 in water to obtain the solution at 200 ppm test compound. A hand-held aspirator-type sprayer was used for spraying a solution to both sides of the cabbage leaves until runoff. Reference plants (solvent check) were sprayed with the diluent only containing 20% by volume acetone/methanol (1:1) solvent. Treated plants were held in a holding room for three days at approximately 25° C. and ambient relative humidity (RH) prior to grading. Evaluation was conducted by counting the number of live aphids per plant under a microscope. Percent Control was measured by using Abbott's correction formula (W. S. Abbott, “A Method of Computing the Effectiveness of an Insecticide” J. Econ. Entomol 18 (1925), pp. 265-267) as follows. Corrected % Control=100*(X−Y)/X
X=No. of live aphids on solvent check plants and
Y=No. of live aphids on treated plants
The results are indicated in the table entitled “Table 1: GPA (MYZUPE) and sweetpotato whitefly-crawler (BEMITA) Rating Table”.

[2] = system: Sweetpotato Whitefly Crawler (Bemisia tabaci) (BEMITA); experiment: Bioassay on Sweetpotato Whitefly Crawler, foliar spray on cotton plants; format: in vivo; conditions: 200 ppm spray on cotton plants; live nymphs counted after 8-9 days; Abbott's correction
Procedure: Cotton plants grown in 3-inch pots, with 1 small (3-5 cm) true leaf, were used at test substrate. The plants were placed in a room with whitely adults. Adults were allowed to deposit eggs for 2-3 days. After a 2-3 day egg-laying period, plants were taken from the adult whitefly room. Adults were blown off leaves using a hand-held Devilbliss sprayer (23 psi). Plants with egg infestation (100-300 eggs per plant) were placed in a holding room for 5-6 days at 82° F. and 50% RH for egg hatch and crawler stage to develop. Four cotton plants were used for each treatment. Compounds (2 mg) were dissolved in 1 mL of acetone solvent, forming stock solutions of 2000 ppm. The stock solutions were diluted 10× with 0.025% Tween 20 in water to obtain a test solution at 200 ppm. A hand-held Devilbliss sprayer was used for spraying a solution to both sides of cotton leaf until runoff. Reference plants (solvent check) were sprayed with the diluent only. Treated plants were held in a holding room for 8-9 days at approximately 82° F. and 50% RH prior to grading. Evaluation was conducted by counting the number of live nymphs per plant under a microscope.

Row | SMILES | MYZUPE rating (% Control of Mortality) [1] | BEMITA rating (% Control of Mortality) [2]
1 | CC(=O)Nc1c[nH]nc1Cl [Compound 1b, N-(3-Chloro-1H-pyrazol-4-yl)acetamide] | B (More than 0-Less than 80) | B (More than 0-Less than 80)
2 | CCN(C(=O)CC[S+]([O-])CCC(F)(F)F)c1cn(-c2cccnc2)nc1Cl (centres unmarked) [Compound 7.2, N-(3-Chloro-1-(pyridin-3-yl)-1H-pyrazol-4-yl)-N-ethyl-3-((3,3,3-trifluoropropyl)sulfoxo)propanamide] | A (80-100) | A (80-100)
3 | CCN(C(=O)CCSCCC(F)(F)F)c1cn(-c2cccnc2)nc1Cl [Compound 6.2, N-(3-Chloro-1-(pyridin-3-yl)-1H-pyrazol-4-yl)-N-ethyl-3-((3,3,3-trifluoropropyl)thio)propanamide] | A (80-100) | A (80-100)
4 | CCNc1cn(-c2cccnc2)nc1Cl [Compound 1d, 3-Chloro-N-ethyl-1-(pyridin-3-yl)-1H-pyrazol-amine] | B (More than 0-Less than 80) | B (More than 0-Less than 80)
5 | CCN(C(=O)CCCl)c1cn(-c2cccnc2)nc1Cl [Compound 2a, 3-Chloro-N-(3-chloro-1-(pyridin-3-yl)-1H-pyrazol-4-yl)-N-ethylpropanamide] | A (80-100) | A (80-100)
6 | CC(=O)Nc1cn(-c2cccnc2)nc1Cl [Compound 1c, N-(3-Chloro-1-(pyridin-3-yl)-1H-pyrazol-4-yl)acetamide] | B (More than 0-Less than 80) | B (More than 0-Less than 80)
7 | Cl.Nc1c[nH]nc1Cl [Compound 1a, 3-Chloro-1H-pyrazol-4-amine hydrochloride] | B (More than 0-Less than 80) | B (More than 0-Less than 80)
